What was measured:
MCF-7 cells = assay: MTT assay, antiproliferative activity, MCF-7; assay type: cell-based, human; settings: for IC50: Homo sapiens, MCF7, MTT, 24 h treatment, mean ± SD; for Selectivity Index (SI) MCF-7: IC50 of healthy cells (NIH/3T3)/IC50 of cancer cells
Description: (§1) MCF-7 (human ER + breast cancer, HTB-22, USA), A549 (human nonsmall cell lung cancer, ATTC CRM-CCL-185, USA), HepG2 (human liver cancer, ATTC HB-8065, USA), and NIH/3T3 (mouse embryonic fibroblast, ATCC, CRL-1658, USA) cells were maintained in DMEM supplemented with 10% fetal bovine serum and 1% penicillin/streptomycin. The cells were maintained under appropriate conditions (37 °C, 5% CO2).
(§2) The antiproliferative activity of the newly synthesized compounds was measured using the MTT assay as described in a previous study. Briefly, cells were seeded at a density of 6 × 10^3 cells/well and incubated for 24 h in a 37 °C humidified incubator with 5% CO2. Afterwards, the cells were treated with increasing concentrations (1, 2.5, 5, 10, 25, 50, 75, and 100 μM) of compounds and incubated for another 24 h. Moreover, some cells were incubated with doxorubicin (1, 5, 10, 25, and 50 μM) for comparison, while other cells treated only with 1% DMSO was used as the solvent control. After incubation, 20 μL of MTT solution (5 mg/mL in PBS) was added to each well, and the plate was incubated for 4 h under the same conditions. Following this period, the medium was discarded and replaced with DMSO. The absorbance of dissolved formazan crystals was measured using a multiplate reader. The IC50 value and the selectivity index of each compound were calculated as previously described.
(§3) The antiproliferative effect of all newly synthesized thiazole-integrated pyrrolotriazinone derivatives were assessed against cancer cell lines (MCF-7, A549, and HepG2) as well as a healthy cell line (NIH/3T3) using the MTT assay. The IC50 values were determined through the nonlinear regression algorithm for log (inhibitor) versus normalized response-variable slope, as implemented in GraphPad [Y = 100/(1 + 10^X−LogIC50), where X represents the logarithm of the inhibitor concentration and Y denotes the response]. Additionally, Selectivity Indices (SI: IC50 of healthy cells/IC50 of cancer cells) were calculated.

A549 cells = assay: MTT assay, antiproliferative activity, A549; assay type: cell-based, human; settings: for IC50: Homo sapiens, A549, MTT, 24 h treatment, mean ± SD; for Selectivity Index (SI) A549: IC50 of healthy cells (NIH/3T3)/IC50 of cancer cells
Description: as §1, §2, §3

HepG2 cells = assay: MTT assay, antiproliferative activity, HepG2; assay type: cell-based, human; settings: for IC50: Homo sapiens, HepG2, MTT, 24 h treatment, mean ± SD; for Selectivity Index (SI) HepG2: IC50 of healthy cells (NIH/3T3)/IC50 of cancer cells
Description: as §1, §2, §3

NIH/3T3 cells = assay: MTT assay, healthy cell line NIH/3T3; assay type: cell-based; settings: Mus musculus, NIH3T3, 24 h treatment, mean ± SD
Description: as §1, §2, §3

Cc1csc(-n2ncc3cccn3c2=O)n1 [Compound 13, 3-(4-methylthiazol-2-yl)pyrrolo[1,2-d][1,2,4]triazin-4(3H)-one]
IC50 (MCF-7 cells): > 100 µM | Selectivity Index (SI) MCF-7 (MCF-7 cells): 1.01 | IC50 (A549 cells): > 100 µM | Selectivity Index (SI) A549 (A549 cells): 0.94 | IC50 (HepG2 cells): > 100 µM | Selectivity Index (SI) HepG2 (HepG2 cells): 1.32 | IC50 (NIH/3T3 cells): > 100 µM

O=c1n(-c2nc(-c3ccc(C(F)(F)F)cc3)cs2)ncc2cccn12 [Compound 19, 3-(4-(4-(trifluoromethyl)phenyl)thiazol-2-yl)pyrrolo[1,2-d][1,2,4]triazin-4(3H)-one]
IC50 (MCF-7 cells): 61.8 ± 1.42 µM | Selectivity Index (SI) MCF-7 (MCF-7 cells): 2.41 | IC50 (A549 cells): 79.5 ± 1.13 µM | Selectivity Index (SI) A549 (A549 cells): 1.87 | IC50 (HepG2 cells): 52.8 ± 0.79 µM | Selectivity Index (SI) HepG2 (HepG2 cells): 2.82 | IC50 (NIH/3T3 cells): > 100 µM

O=c1n(-c2nc(-c3ccc4ccccc4c3)cs2)ncc2cccn12 [Compound 29, 3-(4-(naphthalen-2-yl)thiazol-2-yl)pyrrolo[1,2-d][1,2,4]triazin-4(3H)-one]
IC50 (MCF-7 cells): > 100 µM | Selectivity Index (SI) MCF-7 (MCF-7 cells): 1.03 | IC50 (A549 cells): > 100 µM | Selectivity Index (SI) A549 (A549 cells): 1.19 | IC50 (HepG2 cells): > 100 µM | Selectivity Index (SI) HepG2 (HepG2 cells): 1.26 | IC50 (NIH/3T3 cells): > 100 µM

O=c1n(-c2nc(-c3ccc(F)cc3)cs2)ncc2cccn12 [Compound 20, 3-(4-(4-fluorophenyl)thiazol-2-yl)pyrrolo[1,2-d][1,2,4]triazin-4(3H)-one]
IC50 (MCF-7 cells): 39.8 ± 0.54 µM | Selectivity Index (SI) MCF-7 (MCF-7 cells): 4.93 | IC50 (A549 cells): 44.5 ± 0.51 µM | Selectivity Index (SI) A549 (A549 cells): 4.41 | IC50 (HepG2 cells): 69.7 ± 1.26 µM | Selectivity Index (SI) HepG2 (HepG2 cells): 2.81 | IC50 (NIH/3T3 cells): > 100 µM

O=c1n(-c2nc(-c3ccc(Br)cc3)cs2)ncc2cccn12 [Compound 22, 3-(4-(4-bromophenyl)thiazol-2-yl)pyrrolo[1,2-d][1,2,4]triazin-4(3H)-one]
IC50 (MCF-7 cells): 55.6 ± 1.05 µM | Selectivity Index (SI) MCF-7 (MCF-7 cells): 1.68 | IC50 (A549 cells): 71.2 ± 0.74 µM | Selectivity Index (SI) A549 (A549 cells): 1.31 | IC50 (HepG2 cells): 51.85 ± 0.23 µM | Selectivity Index (SI) HepG2 (HepG2 cells): 1.80 | IC50 (NIH/3T3 cells): 93.46 ± 0.74 µM

O=c1n(-c2nc(-c3ccc(F)c(F)c3)cs2)ncc2cccn12 [Compound 24, 3-(4-(3,4-difluorophenyl)thiazol-2-yl)pyrrolo[1,2-d][1,2,4]triazin-4(3H)-one]
IC50 (MCF-7 cells): 33.2 ± 0.49 µM | Selectivity Index (SI) MCF-7 (MCF-7 cells): 4.72 | IC50 (A549 cells): 45.23 ± 0.41 µM | Selectivity Index (SI) A549 (A549 cells): 3.46 | IC50 (HepG2 cells): 25.3 ± 1.06 µM | Selectivity Index (SI) HepG2 (HepG2 cells): 6.19 | IC50 (NIH/3T3 cells): > 100 µM

O=c1n(-c2nc(-c3cc4ccccc4o3)cs2)ncc2cccn12 [Compound 30, 3-(4-(benzofuran-2-yl)thiazol-2-yl)pyrrolo[1,2-d][1,2,4]triazin-4(3H)-one]
IC50 (MCF-7 cells): > 100 µM | Selectivity Index (SI) MCF-7 (MCF-7 cells): 1.57 | IC50 (A549 cells): > 100 µM | Selectivity Index (SI) A549 (A549 cells): 1.51 | IC50 (HepG2 cells): > 100 µM | Selectivity Index (SI) HepG2 (HepG2 cells): 1.90 | IC50 (NIH/3T3 cells): > 100 µM

Cc1ccc(-c2csc(-n3ncc4cccn4c3=O)n2)cc1 [Compound 15, 3-(4-(p-tolyl)thiazol-2-yl)pyrrolo[1,2-d][1,2,4]triazin-4(3H)-one]
IC50 (MCF-7 cells): > 100 µM | Selectivity Index (SI) MCF-7 (MCF-7 cells): 1.01 | IC50 (A549 cells): > 100 µM | Selectivity Index (SI) A549 (A549 cells): 0.84 | IC50 (HepG2 cells): > 100 µM | Selectivity Index (SI) HepG2 (HepG2 cells): 0.85 | IC50 (NIH/3T3 cells): > 100 µM

O=c1n(-c2nc(-c3cccs3)cs2)ncc2cccn12 [Compound 32, 3-(4-(thiophen-2-yl)thiazol-2-yl)pyrrolo[1,2-d][1,2,4]triazin-4(3H)-one]
IC50 (MCF-7 cells): 83.71 ± 0.81 µM | Selectivity Index (SI) MCF-7 (MCF-7 cells): 2.43 | IC50 (A549 cells): > 100 µM | Selectivity Index (SI) A549 (A549 cells): 1.68 | IC50 (HepG2 cells): > 100 µM | Selectivity Index (SI) HepG2 (HepG2 cells): 2.00 | IC50 (NIH/3T3 cells): > 100 µM

O=c1n(-c2nc(-c3ccc(-c4ccccc4)cc3)cs2)ncc2cccn12 [Compound 28, 3-(4-([1,1′-biphenyl]-4-yl)thiazol-2-yl)pyrrolo[1,2-d][1,2,4]triazin-4(3H)-one]
IC50 (MCF-7 cells): 63.17 ± 0.35 µM | Selectivity Index (SI) MCF-7 (MCF-7 cells): 2.79 | IC50 (A549 cells): 78.23 ± 0.05 µM | Selectivity Index (SI) A549 (A549 cells): 2.25 | IC50 (HepG2 cells): 44.8 ± 1.06 µM | Selectivity Index (SI) HepG2 (HepG2 cells): 3.93 | IC50 (NIH/3T3 cells): > 100 µM

COc1ccc(-c2csc(-n3ncc4cccn4c3=O)n2)cc1OC [Compound 23, 3-(4-(3,4-dimethoxyphenyl)thiazol-2-yl)pyrrolo[1,2-d][1,2,4]triazin-4(3H)-one]
IC50 (MCF-7 cells): 15.2 ± 0.183 µM | Selectivity Index (SI) MCF-7 (MCF-7 cells): 5.49 | IC50 (A549 cells): 43.3 ± 1.09 µM | IC50 (HepG2 cells): 17.2 ± 0.81 µM | Selectivity Index (SI) HepG2 (HepG2 cells): 4.85 | IC50 (NIH/3T3 cells): 83.44 ± 0.15 µM

O=c1n(-c2nc(-c3ccc([N+](=O)[O-])cc3)cs2)ncc2cccn12 [Compound 18, 3-(4-(4-nitrophenyl)thiazol-2-yl)pyrrolo[1,2-d][1,2,4]triazin-4(3H)-one]
IC50 (MCF-7 cells): 79.19 ± 0.61 µM | Selectivity Index (SI) MCF-7 (MCF-7 cells): 2.08 | IC50 (A549 cells): > 100 µM | Selectivity Index (SI) A549 (A549 cells): 1.51 | IC50 (HepG2 cells): > 100 µM | Selectivity Index (SI) HepG2 (HepG2 cells): 1.60 | IC50 (NIH/3T3 cells): > 100 µM

COc1ccc(-c2csc(-n3ncc4cccn4c3=O)n2)cc1 [Compound 17, 3-(4-(4-methoxyphenyl)thiazol-2-yl)pyrrolo[1,2-d][1,2,4]triazin-4(3H)-one]
IC50 (MCF-7 cells): > 100 µM | Selectivity Index (SI) MCF-7 (MCF-7 cells): 1.34 | IC50 (A549 cells): > 100 µM | Selectivity Index (SI) A549 (A549 cells): 1.44 | IC50 (HepG2 cells): > 100 µM | Selectivity Index (SI) HepG2 (HepG2 cells): 1.22 | IC50 (NIH/3T3 cells): > 100 µM

COc1cccc2c1C(=O)c1c(O)c3c(c(O)c1C2=O)C[C@@](O)(C(=O)CO)C[C@@H]3O[C@H]1C[C@H](N)[C@H](O)[C@H](C)O1 [Dox, doxorubicin, reference compound]
IC50 (MCF-7 cells): 1.34 ± 0.07 µM | Selectivity Index (SI) MCF-7 (MCF-7 cells): 2.6 | IC50 (A549 cells): 0.61 ± 0.12 µM | Selectivity Index (SI) A549 (A549 cells): 5.83 | IC50 (HepG2 cells): 1.27 ± 0.24 µM | Selectivity Index (SI) HepG2 (HepG2 cells): 2.8 | IC50 (NIH/3T3 cells): 3.56 ± 0.02 µM

O=c1n(-c2nc(-c3ccccc3)cs2)ncc2cccn12 [Compound 14, 3-(4-phenylthiazol-2-yl)pyrrolo[1,2-d][1,2,4]triazin-4(3H)-one]
IC50 (MCF-7 cells): > 100 µM | Selectivity Index (SI) MCF-7 (MCF-7 cells): 0.96 | IC50 (A549 cells): > 100 µM | Selectivity Index (SI) A549 (A549 cells): 1.25 | IC50 (HepG2 cells): > 100 µM | Selectivity Index (SI) HepG2 (HepG2 cells): 1.04 | IC50 (NIH/3T3 cells): > 100 µM

O=c1n(-c2nc(-c3ccc(O)cc3)cs2)ncc2cccn12 [Compound 16, 3-(4-(4-hydroxyphenyl)thiazol-2-yl)pyrrolo[1,2-d][1,2,4]triazin-4(3H)-one]
IC50 (MCF-7 cells): > 100 µM | Selectivity Index (SI) MCF-7 (MCF-7 cells): 1.10 | IC50 (A549 cells): > 100 µM | Selectivity Index (SI) A549 (A549 cells): 1.32 | IC50 (HepG2 cells): > 100 µM | Selectivity Index (SI) HepG2 (HepG2 cells): 1.02 | IC50 (NIH/3T3 cells): > 100 µM

O=c1n(-c2nc(-c3ccco3)cs2)ncc2cccn12 [Compound 31, 3-(4-(furan-2-yl)thiazol-2-yl)pyrrolo[1,2-d][1,2,4]triazin-4(3H)-one]
IC50 (MCF-7 cells): 91.2 ± 1.06 µM | Selectivity Index (SI) MCF-7 (MCF-7 cells): 1.91 | IC50 (A549 cells): > 100 µM | Selectivity Index (SI) A549 (A549 cells): 1.67 | IC50 (HepG2 cells): > 100 µM | Selectivity Index (SI) HepG2 (HepG2 cells): 1.69 | IC50 (NIH/3T3 cells): > 100 µM

— article PMC12068666, “Synthesis of thiazole-integrated pyrrolotriazinones: evaluations of cytotoxicity and effects on PI3K levels in cancer cells” (Turkish Journal of Chemistry, 2025)
